Experiment [1] deals with MBT-2. Put plainly: Cell based assay, cell viability (CellTiter-Glo), MBT-2. To be noted: 72 hours, 0 to 2 µM; read-out: cell based assay cell line 1 MBT-2 IC50. On the procedure:
(§1) Commercially available bladder cancer cell lines were treated with trypsin-EDTA and seeded in each well of a 96 well plate, followed by incubation for 24 hours. After incubation, candidate compounds were added to each well at a final concentration of 0 to 2 µM. The compound-treated cells were further incubated for 72 hours. Cell viability was measured using an ATP detection method (CellTiter-Glo Luminescent Cell Viability Assay, Promega).
(§2) The selectivity of the compounds of the present disclosure to cancer cells was evaluated in the same manner as described in "2. Cell based assay".
For orientation: In ATP-based viability assays light output follows the ATP content of the culture.

Experiment [2] concerns KU19-19. Put plainly: Cell based assay, cell viability (CellTiter-Glo), KU19-19. Conditions: Homo sapiens, KU-19-19; 72 hours, 0 to 2 µM; read-out: cell based assay cell line 2 KU19-19 IC50. Here is the method: as §1, §2
The test system of experiment [3] is 253J. Put plainly: Cell based assay, cell viability (CellTiter-Glo), 253J. Conditions: Homo sapiens; 72 hours, 0 to 2 µM; read-out: cell based assay cell line 3 253J IC50. Here is the method:
as §1, §2

Experiment [4] concerns UM-UC-3. Put plainly: Cell based assay, cell viability (CellTiter-Glo), UM-UC-3. Conditions: Homo sapiens, UMUC3; 72 hours, 0 to 2 µM; read-out: cell based assay cell line 4 UM-UC-3 IC50. On the procedure: as §1, §2

This passage reports IC50 results from EP3495350B1, “COMPOUND INHIBITING FORMATION OF C-MYC/MAX/DNA COMPLEX” (National Cancer Center, priority 2016, dated 2018).

For orientation: IC50 means the point on the concentration scale where inhibition reaches its midpoint. Turning to `CC(=O)c1c([S+]([O-])Cc2cc(C)on2)[nH]c2c(F)ccc(F)c2c1=O` (centres unmarked) [Compound 82, 3-acetyl-5,8-difluoro-2-(((5-methylisoxazol-3 - yl)methyl)sulfinyl)quinolin-4(1H)-one], the IC50 in experiment [1], in experiment [2], in experiment [3] and in experiment [4] was over 2000 nM throughout.
As for `CC(=O)c1c([S+]([O-])Cc2ccc(I)cc2)[nH]c2c(Cl)ccc(Cl)c2c1=O` (centres unmarked) [Compound 83, 3-acetyl-5,8-dichloro-2-((4-iodobenzyl)sulfinyl)quinolin-4(1H)-one], the IC50 in experiment [1] stood at 1350 nM; in experiment [2], 1600 nM; in experiment [3], 1420 nM; in experiment [4], 1310 nM.
Consider `CC(=O)c1c([S+]([O-])Cc2cccnc2)[nH]c2c(Br)ccc(Cl)c2c1=O` (centres unmarked) [Compound 84, 3-acetyl-8-bromo-5-chloro-2-((pyridin-3-ylmethyl)sulfinyl)quinolin-4(1H)-one], for which the IC50 in experiment [1] was determined as 670 nM; in experiment [2], 1500 nM; in experiment [3], 870 nM; in experiment [4] it was 760 nM.
Taken in the same sequence, the figures for `CC(C)C(=O)c1c([S+]([O-])Cc2ccc(SC(F)(F)F)cc2)[nH]c2c(F)ccc(F)c2c1=O` (centres unmarked) [Compound 85, 5,8-difluoro-3-isobutyryl-2-((4-((trifluoromethyl)thio)benzyl)sulfinyl)quinolin-4(1H)-one] were over 2000 nM, over 2000 nM, over 2000 nM and over 2000 nM.
Taken in the same sequence, the figures for `Cc1cc(C[S+]([O-])c2[nH]c3c(Cl)ccc(Cl)c3c(=O)c2C(=O)C(C)C)no1` (centres unmarked) [Compound 86, 5,8-dichloro-3-isobutyryl-2-(((5 - methylisoxazol-3-yl)methyl)sulfinyl)quinolin-4(1H)-one] were 810 nM, 1410 nM, 1060 nM and 1260 nM.
On to `O=C(c1ccccc1)c1c([S+]([O-])Cc2ccc(S(F)(F)(F)(F)F)cc2)[nH]c2c(F)ccc(F)c2c1=O` (centres unmarked) [Compound 87, 3-benzoyl-5,8-difluoro-2-((4-(pentafluoro-λ6-sulfanyl)benzyl)sulfinyl)quinolin-4(1H)-one], for which the IC50 in experiment [1], in experiment [2], in experiment [3] and in experiment [4] was over 2000 nM in each case.
As to `Cc1cc(C[S+]([O-])c2[nH]c3c(Cl)ccc(Cl)c3c(=O)c2C(=O)c2ccccc2)no1` (centres unmarked) [Compound 88, 3-benzoyl-5,8-dichloro-2-(((5-methylisoxazol-3-yl)methyl)sulfinyl)quinolin-4(1H)-one], the IC50 in experiment [1], in experiment [2], in experiment [3] and in experiment [4] was over 2000 nM in each case.
Regarding `COC(=O)c1ccc(C[S+]([O-])c2[nH]c3c(Cl)ccc(Cl)c3c(=O)c2C(C)=O)o1` (centres unmarked) [Compound 89, methyl 5-(((3-acetyl-5,8-dichloro-4-oxo-1,4-dihydroquinolin-2-yl)sulfinyl)methyl)furan-2-carboxylate], the IC50 in experiment [1] is 1270 nM; in experiment [2], over 2000 nM; in experiment [3] it was 1840 nM; in experiment [4], 1470 nM.
Taken in the same sequence, the figures for `COC(=O)c1ccc(C[S+]([O-])c2[nH]c3c(Cl)ccc(Cl)c3c(=O)c2C(C)=O)cc1` (centres unmarked) [Compound 91, methyl 4-(((3-acetyl-5,8-dichloro-4-oxo-1,4-dihydroquinolin-2-yl)sulfinyl)methyl)benzoate] were 1370 nM, over 2000 nM, over 2000 nM and 1560 nM.
Taken in the same sequence, the figures for `COc1cccc2[nH]c([S+]([O-])Cc3ccc(S(F)(F)(F)(F)F)cc3)c(C(C)=O)c(=O)c12` (centres unmarked) [Compound 93, 3-acetyl-5-methoxy-2-((4-(pentafluoro-λ6-sulfanyl)benzyl)sulfinyl)quinolin-4(1H)-one] were over 2000 nM, over 2000 nM, over 2000 nM and over 2000 nM.
On to `COc1cccc2[nH]c([S+]([O-])Cc3cc(C)on3)c(C(C)=O)c(=O)c12` (centres unmarked) [Compound 94, 3-acetyl-5-methoxy-2-(((5-methylisoxazol-3 - yl)methyl)sulfinyl)quinolin-4(1H)-one], for which the IC50 in experiment [1] is 1530 nM; in experiment [2] it was over 2000 nM; in experiment [3], over 2000 nM; in experiment [4], over 2000 nM.
`Cc1cc(C[S+]([O-])c2[nH]c3c(Br)ccc(Cl)c3c(=O)c2C(=O)C(C)C)no1` (centres unmarked) [Compound 95, 8-bromo-5-chloro-3-isobutyryl-2-(((5-methylisoxazol-3-yl)methyl)sulfinyl)quinolin-4(1H)-one]: the half-inhibitory concentration (IC50) came to 800 nM in experiment [1], 1290 nM in experiment [2], 770 nM in experiment [3] and 1060 nM in experiment [4].
Taken in the same sequence, the figures for `Cc1cc(C[S+]([O-])c2[nH]c3c(Br)ccc(Cl)c3c(=O)c2C(=O)C2CC2)no1` (centres unmarked) [Compound 96, 8-bromo-5-chloro-3-(cyclopropanecarbonyl)-2-(((5-methylisoxazol-3-yl)methyl)sulfinyl)quinolin-4(1H)-one] were 1060 nM, over 2000 nM, 1490 nM and 1630 nM.
Taken in the same sequence, the figures for `Cc1cc(C[S+]([O-])c2[nH]c3c(Cl)ccc(Cl)c3c(=O)c2C(=O)C2CC2)no1` (centres unmarked) [Compound 97, 5,8-dichloro-3-(cyclopropanecarbonyl)-2-(((5 - methylisoxazol-3-yl)methyl)sulfinyl)quinolin-4(1H)-one] were 810 nM, 1620 nM, 1200 nM and 1270 nM.
`CC(=O)c1c([S+]([O-])Cc2ccc(C#N)s2)[nH]c2c(Br)ccc(Cl)c2c1=O` (centres unmarked) [Compound 98, 5-(((3-acetyl-8-bromo-5-chloro-4-oxo-1,4-dihydroquinolin-2-yl)sulfinyl)methyl)thiophene-2-carbonitrile]: the IC50 in experiment [1] is 840 nM; in experiment [2], 1900 nM; in experiment [3], 1380 nM; in experiment [4] it was 1520 nM.
For `CC(=O)c1c([S+]([O-])Cc2ccc(-n3cccn3)nc2)[nH]c2c(Br)ccc(Cl)c2c1=O` (centres unmarked) [Compound 99, 2-(((6-(1H-pyrazol-1-yl)pyridin-3-yl)methyl)sulfinyl)-3-acetyl-8-bromo-5-chloroquinolin-4(1H)-one] the same measures were 470 nM, 1120 nM, 800 nM and 770 nM.
Taken in the same sequence, the figures for `CC(=O)c1c([S+]([O-])Cc2ccc(N)nc2)[nH]c2c(Br)ccc(Cl)c2c1=O` (centres unmarked) [Compound 100, 3-acetyl-2-(((6-aminopyridin-3-yl)methyl)sulfinyl)-8-bromo-5-chloroquinolin-4(1H)-one] were over 2000 nM, over 2000 nM, over 2000 nM and over 2000 nM.
In the case of `O=C(c1c([S+]([O-])Cc2ccc(SC(F)(F)F)cc2)[nH]c2c(Br)ccc(Cl)c2c1=O)C1CC1` (centres unmarked) [Compound 101, 8-bromo-5-chloro-3-(cyclopropanecarbonyl)-2-((4-((trifluoromethyl)thio)benzyl)sulfinyl)quinolin-4(1H)-one], the IC50 in experiment [1] is over 2000 nM; in experiment [2] it was over 2000 nM; in experiment [3], 1820 nM; in experiment [4], 1930 nM.
In the case of `CC(=O)c1c([S+]([O-])Cc2ccc(C(F)(F)F)nc2C)[nH]c2c(Br)ccc(Cl)c2c1=O` (centres unmarked) [Compound 102, 3-acetyl-8-bromo-5-chloro-2-(((2-methyl-6-(trifluoromethyl)pyridin-3-yl)methyl)sulfinyl)quinolin-4(1H)-one], the IC50 is 770 nM in experiment [1], 1580 nM in experiment [2], 830 nM in experiment [3] and 1070 nM in experiment [4].
Take `CC(=O)c1c([S+]([O-])Cc2ccc(NS(C)(=O)=O)cc2)[nH]c2c(Br)ccc(Cl)c2c1=O` (centres unmarked) [Compound 103, N-(4-(((3-acetyl-8-bromo-5-chloro-4-oxo-1,4-dihydroquinolin-2-yl)sulfinyl)methyl)phenyl)methanesulfonamide]: the IC50 in experiment [1], in experiment [2], in experiment [3] and in experiment [4] was over 2000 nM throughout.
As for `CC(=O)c1c([S+]([O-])Cc2ccc(Cl)nc2)[nH]c2c(Br)ccc(Cl)c2c1=O` (centres unmarked) [Compound 104, 3-acetyl-8-bromo-5-chloro-2-(((6-chloropyridin-3-yl)methyl)sulfinyl)quinolin-4(1H)-one], the half-maximal inhibitory concentration (IC50) in experiment [1] came to 710 nM; in experiment [2], 1500 nM; in experiment [3], 870 nM; in experiment [4], 1130 nM.
With `COCCNc1ccc(C[S+]([O-])c2[nH]c3c(Br)ccc(Cl)c3c(=O)c2C(C)=O)cn1` (centres unmarked) [Compound 105, 3-acetyl-8-bromo-5-chloro-2-(((6-((2-methoxyethyl)amino)pyridin-3-yl)methyl)sulfinyl)quinolin-4(1H)-one], the IC50 in experiment [1], in experiment [2], in experiment [3] and in experiment [4] was over 2000 nM throughout.
With `CC(=O)c1c([S+]([O-])Cc2nonc2C)[nH]c2c(Br)ccc(Cl)c2c1=O` (centres unmarked) [Compound 106, 3-acetyl-8-bromo-5-chloro-2-(((4-methyl-1,2,5-oxadiazol-3-yl)methyl)sulfinyl)quinolin-4(1H)-one], the half-inhibitory concentration (IC50) in experiment [1], in experiment [2], in experiment [3] and in experiment [4] was over 2000 nM in each case.
